Assay results taken from ChEMBL document CHEMBL1201862, “PubChem BioAssay data set” (2004).
The source made the active and inactive calls.

Experiments:
[1] = target: T1, High affinity choline transporter 1 (Homo sapiens, UniProt Q9GZV3); assay: human choline transporter blockers, potency – cell-based, 5-point CRC, membrane potential dye, dose response (AID 504840); assay type: functional
T1 sequence (Q9GZV3 whole entry): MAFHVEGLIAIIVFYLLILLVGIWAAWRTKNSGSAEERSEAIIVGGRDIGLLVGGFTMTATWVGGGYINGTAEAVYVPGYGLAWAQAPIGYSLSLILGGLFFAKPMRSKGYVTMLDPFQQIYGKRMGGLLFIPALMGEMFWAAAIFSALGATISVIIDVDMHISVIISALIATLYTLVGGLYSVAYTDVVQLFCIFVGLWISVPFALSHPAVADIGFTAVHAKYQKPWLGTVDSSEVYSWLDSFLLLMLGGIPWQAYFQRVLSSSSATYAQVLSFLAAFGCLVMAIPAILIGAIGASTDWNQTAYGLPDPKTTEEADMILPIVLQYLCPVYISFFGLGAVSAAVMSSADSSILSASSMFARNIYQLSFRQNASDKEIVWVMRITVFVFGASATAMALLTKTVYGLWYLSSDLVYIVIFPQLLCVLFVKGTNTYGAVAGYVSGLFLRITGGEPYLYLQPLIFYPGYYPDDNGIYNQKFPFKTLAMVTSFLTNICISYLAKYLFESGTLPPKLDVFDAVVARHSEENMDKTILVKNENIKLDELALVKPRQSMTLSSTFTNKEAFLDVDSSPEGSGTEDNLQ

[2] = target: T1, High affinity choline transporter 1; assay: human choline transporter blockers, potency – cell-based, 10-point CRC, membrane potential dye, dose response (AID 588401); assay type: functional;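 note: membrane potential dye fluorescence of choline-evoked depolarization via CHT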
[3] = target: Multidrug resistance protein CDR2 (Candida albicans (strain SC5314 / ATCC MYA-2876) (Yeast), UniProt P78595); assay: inhibition of Nile Red efflux via Candida CDR2 – S. cerevisiae AD1-8u, singleplex, Cherry Pick1 hits, dose response (AID 588604); assay type: functional
[4] = microbe, parasite or virus in culture; assay type: functional; settings: Mycobacterium tuberculosis
[5] = viability of PTEN-deleted HCT116 cells – cell-based, HCT116 PTEN knockout, dose response (AID 1047); assay type: functional;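 note: HCT116 colon tumor cells with PTEN knocked out; cells exposed to compound for 60 hours before readout; potency for loss of cell viability measured by luminescence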
[6] = viability of HCT116 lacking mutant beta-catenin – cell-based, human colon tumor, dose response (AID 1045); assay type: functional;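 note: HCT116 colon tumor cells with beta catenin knocked out; cells exposed to compound for 60 hours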
[7] = HEK-293T cell viability reduction – luminescence, B-cell screen hits, cytotoxicity control for BCR NF-kB inhibitor project, dose response (AID 489021); assay type: functional, cell-based;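 note: HEK-293T cells carrying an NF-kB luciferase reporter; cells exposed to compound for about 14 hours before viability readout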
Melanocortin receptor 4 = Melanocortin receptor 4 (Homo sapiens, UniProt P32245); assay: inhibitors of MC4R cAMP signaling – cell-based, TR-FRET, biased antagonists, dose response (AID 602298); assay type: functional;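 note: antagonist potency against agonist-stimulated cAMP production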
[8] = reduction of Shn3 3'UTR-driven luciferase in osteoblasts – cell-based, Clone20 osteoblasts, firefly luciferase, cherry-picked, dose response (AID 624132); assay type: functional;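 note: firefly luciferase luminescence from reporter carrying the Shn3 3'UTR in osteoblasts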
[9] = loss of viability in HepG2 cells – cell-based, CellTiter-Glo, cherry-picked, cytotoxicity control for Shn3 inhibitor project, dose response (AID 624134); assay type: functional
[10] = non-specific 3'UTR reporter inhibition in Clone20-Shn3RL – cell-based, Renilla luciferase, cherry-picked, counter-screen for Shn3 inhibitor project, dose response (AID 624133); assay type: functional
[11] = cAMP pathway inhibition in counterscreen cell line – TR-FRET cAMP detection, counter-screen for MC4R biased antagonist project, dose response (AID 602305); assay type: functional, cell-based;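 note: U2OS cells stimulated with forskolin near its EC80 as the cAMP inducer; potency is for inhibition of forskolin-stimulated cAMP signaling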
[12] = A549 cell cytotoxicity, dose response, cytotoxicity control, plate reader, cherry-pick, antagonist series (AID 743412); assay type: functional, cell-based
[13] = toxicity toward HepG2 liver cells – cell-based, plate reader, cherry-pick, antagonist series, cytotoxicity control, dose response (AID 743416); assay type: functional
[14] = blockers of bursicon-stimulated LGR2 cAMP reporter – cell-based, HEK293, CRE-luciferase reporter, cherry pick, set 2, dose response (AID 743343); assay type: functional;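 note: transfected cells were stimulated with diluted bursicon conditioned medium after compound addition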
[15] = blockade of melanocortin 4 receptor signaling – cell-based, plate reader, cherry pick, counter-screen for LGR2 antagonist project, dose response (AID 743444); assay type: functional;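 note: transfected HEK 293 cells stimulated with alpha-MSH peptide; potency of inhibitors of the alpha-MSH evoked signal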
[16] = viability loss in HEK293 cells – cell-based, plate reader, cherry-picked samples, cytotoxicity control, dose response (AID 743446); assay type: functional
[17] = target: T2, DNA dC->dU-editing enzyme APOBEC-3A (Homo sapiens, UniProt P31941); assay: Dose Response confirmation of small molecule APOBEC3A DNA Deaminase Inhibitors via a fluorescence-based single-stranded DNA deaminase assay. [Related pubchem assays (depositor defined):AID493011, AID493024]; assay type: functional
[18] = target: T3, DNA dC->dU-editing enzyme APOBEC-3G (Homo sapiens, UniProt Q9HC16); assay type: functional
[19] = target: T2, DNA dC->dU-editing enzyme APOBEC-3A; assay: SAR analysis of small molecule inhibitors of APOBEC3A DNA Deaminase via a fluorescence-based single-stranded DNA deaminase assay - Set 2.; assay type: functional; settings: read-out: IC50_Mean
[20] = target: T3, DNA dC->dU-editing enzyme APOBEC-3G; assay: SAR analysis of small molecule inhibitors of APOBEC3G DNA Deaminase via a fluorescence-based single-stranded DNA deaminase assay - Set 2.; assay type: functional; settings: read-out: IC50_Mean
[21] = target: T3, DNA dC->dU-editing enzyme APOBEC-3G; assay: inhibition of APOBEC3G ssDNA deamination – biochemical, fluorescence, single-stranded DNA substrate, SAR follow-up (AID 602136); assay type: functional; settings: read-out: IC50_Mean
[22] = target: T2, DNA dC->dU-editing enzyme APOBEC-3A; assay: SAR analysis of small molecule inhibitors of APOBEC3A DNA Deaminase via a fluorescence-based single-stranded DNA deaminase assay.; assay type: functional; settings: read-out: IC50_Mean
[23] = target: T4, Neuropeptides B/W receptor type 1 (Homo sapiens, UniProt P48145); assay: human NPBW1 receptor blockade, IC50 – cell-based, fluorescence, dose response, set 5, late-stage follow-up (AID 588566); assay type: functional
T4 sequence (P48145 whole entry): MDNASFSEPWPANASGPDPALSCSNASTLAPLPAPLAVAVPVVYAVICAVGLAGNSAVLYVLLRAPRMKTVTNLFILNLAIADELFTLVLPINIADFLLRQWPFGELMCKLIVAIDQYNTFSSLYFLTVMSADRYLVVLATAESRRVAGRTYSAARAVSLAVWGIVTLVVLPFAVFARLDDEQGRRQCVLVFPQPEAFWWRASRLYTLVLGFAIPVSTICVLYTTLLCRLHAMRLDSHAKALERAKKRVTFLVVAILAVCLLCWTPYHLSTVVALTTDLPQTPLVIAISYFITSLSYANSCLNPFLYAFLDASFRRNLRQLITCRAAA

[24] = target: Melanin-concentrating hormone receptor 1 (Homo sapiens, UniProt Q99705); assay: Late-stage fluorescence-based counterscreen for antagonists of the G-protein coupled receptor 7 (GPR7): cell-based dose response assay to identify antagonists of the melanin-concentrating hormone receptor 1 (MCHR1) Set 5.; assay type: functional
[25] = target: Mitogen-activated protein kinase 8 (Homo sapiens, UniProt P45983); assay type: functional;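 note: value comes from one member of a kinome-wide kinase profiling panel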
[26] = target: Dual specificity tyrosine-phosphorylation-regulated kinase 1B (Homo sapiens, UniProt Q9Y463); assay: Navigating the Kinome. Panel member name: DYRK1B; assay type: functional
[27] = target: Dual specificity protein kinase CLK4 (Homo sapiens, UniProt Q9HAZ1); assay type: functional
[28] = target: Dual specificity tyrosine-phosphorylation-regulated kinase 1A (Homo sapiens, UniProt Q13627); assay type: functional;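 note: measured against DYRK1A as one member of a broad kinome profiling panel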
[29] = SAR analysis of small molecule activators of Apaf-1 using a LZ-Caspase-9/Caspase-3 Fluorescent Selectivity assay - Set 2.; assay type: functional; settings: read-out: EC50_Mean
[30] = target: T5, Apoptotic protease-activating factor 1 (Homo sapiens, UniProt O14727); assay: SAR analysis of small molecule Activators of Apaf-1 in a Fluorescent assay - set 2.; assay type: functional; settings: read-out: EC50_Mean
T5 sequence (O14727 whole entry): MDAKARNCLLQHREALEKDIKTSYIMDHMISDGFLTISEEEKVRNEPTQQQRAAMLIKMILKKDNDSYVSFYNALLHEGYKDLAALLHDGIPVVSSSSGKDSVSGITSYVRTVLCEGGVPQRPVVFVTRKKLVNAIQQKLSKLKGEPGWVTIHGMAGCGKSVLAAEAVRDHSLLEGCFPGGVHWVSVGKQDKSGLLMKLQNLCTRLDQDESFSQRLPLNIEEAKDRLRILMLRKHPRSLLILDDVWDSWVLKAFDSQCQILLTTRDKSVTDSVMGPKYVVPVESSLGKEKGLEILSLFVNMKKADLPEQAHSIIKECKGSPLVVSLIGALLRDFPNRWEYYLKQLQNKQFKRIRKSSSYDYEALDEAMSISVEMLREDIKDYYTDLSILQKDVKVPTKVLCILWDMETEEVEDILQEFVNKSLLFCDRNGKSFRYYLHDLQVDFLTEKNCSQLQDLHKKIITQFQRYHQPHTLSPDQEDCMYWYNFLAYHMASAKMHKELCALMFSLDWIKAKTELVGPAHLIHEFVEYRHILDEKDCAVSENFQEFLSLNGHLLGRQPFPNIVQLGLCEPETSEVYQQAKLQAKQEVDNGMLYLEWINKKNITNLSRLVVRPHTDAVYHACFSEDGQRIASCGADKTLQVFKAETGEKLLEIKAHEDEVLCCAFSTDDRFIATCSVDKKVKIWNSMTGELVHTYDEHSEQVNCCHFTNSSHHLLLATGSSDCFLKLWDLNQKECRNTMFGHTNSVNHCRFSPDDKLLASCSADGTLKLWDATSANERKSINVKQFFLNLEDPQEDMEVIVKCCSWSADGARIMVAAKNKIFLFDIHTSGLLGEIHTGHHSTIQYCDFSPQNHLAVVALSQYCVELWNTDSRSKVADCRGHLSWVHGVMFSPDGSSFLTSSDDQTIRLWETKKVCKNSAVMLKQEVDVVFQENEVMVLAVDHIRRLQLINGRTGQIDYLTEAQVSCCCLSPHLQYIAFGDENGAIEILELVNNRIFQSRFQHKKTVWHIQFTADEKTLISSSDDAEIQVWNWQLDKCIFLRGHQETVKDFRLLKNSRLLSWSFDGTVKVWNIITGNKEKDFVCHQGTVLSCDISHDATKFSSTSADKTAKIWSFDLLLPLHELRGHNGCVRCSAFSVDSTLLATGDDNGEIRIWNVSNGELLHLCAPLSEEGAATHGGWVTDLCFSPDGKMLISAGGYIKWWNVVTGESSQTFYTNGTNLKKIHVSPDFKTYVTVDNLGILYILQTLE

T2 sequence (P31941 whole entry): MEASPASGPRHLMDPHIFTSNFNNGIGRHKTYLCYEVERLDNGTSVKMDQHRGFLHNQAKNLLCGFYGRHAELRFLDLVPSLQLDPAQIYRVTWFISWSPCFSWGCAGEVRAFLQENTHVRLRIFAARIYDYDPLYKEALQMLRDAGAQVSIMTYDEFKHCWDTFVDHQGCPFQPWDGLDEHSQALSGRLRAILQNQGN
T3 sequence (Q9HC16 whole entry): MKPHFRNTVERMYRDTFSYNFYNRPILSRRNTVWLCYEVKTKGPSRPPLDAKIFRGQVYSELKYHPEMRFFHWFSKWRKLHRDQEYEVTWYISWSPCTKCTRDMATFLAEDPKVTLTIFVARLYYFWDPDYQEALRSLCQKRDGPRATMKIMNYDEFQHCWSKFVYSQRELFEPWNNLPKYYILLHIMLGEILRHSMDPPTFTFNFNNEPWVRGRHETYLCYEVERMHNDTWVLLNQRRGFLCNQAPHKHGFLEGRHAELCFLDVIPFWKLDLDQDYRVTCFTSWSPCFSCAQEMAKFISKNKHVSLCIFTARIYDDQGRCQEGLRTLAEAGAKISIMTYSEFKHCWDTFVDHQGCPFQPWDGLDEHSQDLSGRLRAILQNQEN
Chain of Dual specificity tyrosine-phosphorylation-regulated kinase 1B (Q9Y463 whole entry): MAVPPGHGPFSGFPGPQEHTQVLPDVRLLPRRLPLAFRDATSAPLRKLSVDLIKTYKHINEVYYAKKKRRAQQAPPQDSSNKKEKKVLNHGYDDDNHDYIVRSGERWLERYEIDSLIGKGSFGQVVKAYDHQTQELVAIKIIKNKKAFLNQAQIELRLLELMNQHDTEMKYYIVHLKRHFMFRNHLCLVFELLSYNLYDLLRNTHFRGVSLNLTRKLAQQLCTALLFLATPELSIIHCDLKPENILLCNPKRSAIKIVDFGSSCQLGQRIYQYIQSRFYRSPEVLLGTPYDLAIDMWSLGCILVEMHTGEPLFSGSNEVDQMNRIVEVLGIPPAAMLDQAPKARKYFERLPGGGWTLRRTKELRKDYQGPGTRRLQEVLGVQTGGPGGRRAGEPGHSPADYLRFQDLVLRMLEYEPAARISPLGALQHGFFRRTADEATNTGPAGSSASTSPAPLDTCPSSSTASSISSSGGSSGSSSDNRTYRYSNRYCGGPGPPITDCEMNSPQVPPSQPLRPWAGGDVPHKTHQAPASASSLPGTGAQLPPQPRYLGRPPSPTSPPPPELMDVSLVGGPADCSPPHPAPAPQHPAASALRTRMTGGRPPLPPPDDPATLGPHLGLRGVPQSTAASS
Chain of Dual specificity protein kinase CLK4 (Q9HAZ1 whole entry): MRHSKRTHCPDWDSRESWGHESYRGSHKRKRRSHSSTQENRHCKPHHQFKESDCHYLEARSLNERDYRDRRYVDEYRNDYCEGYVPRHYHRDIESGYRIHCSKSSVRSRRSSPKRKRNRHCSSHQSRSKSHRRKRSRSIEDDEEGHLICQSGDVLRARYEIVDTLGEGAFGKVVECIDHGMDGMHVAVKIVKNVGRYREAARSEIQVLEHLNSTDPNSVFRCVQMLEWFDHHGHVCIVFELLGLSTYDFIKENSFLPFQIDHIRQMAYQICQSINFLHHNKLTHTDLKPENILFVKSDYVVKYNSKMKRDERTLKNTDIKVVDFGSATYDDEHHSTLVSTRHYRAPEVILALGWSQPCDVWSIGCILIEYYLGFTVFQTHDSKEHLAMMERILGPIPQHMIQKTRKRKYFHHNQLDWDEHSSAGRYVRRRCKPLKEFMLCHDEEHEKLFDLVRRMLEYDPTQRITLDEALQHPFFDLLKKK
Chain of Multidrug resistance protein CDR2 (P78595 whole entry): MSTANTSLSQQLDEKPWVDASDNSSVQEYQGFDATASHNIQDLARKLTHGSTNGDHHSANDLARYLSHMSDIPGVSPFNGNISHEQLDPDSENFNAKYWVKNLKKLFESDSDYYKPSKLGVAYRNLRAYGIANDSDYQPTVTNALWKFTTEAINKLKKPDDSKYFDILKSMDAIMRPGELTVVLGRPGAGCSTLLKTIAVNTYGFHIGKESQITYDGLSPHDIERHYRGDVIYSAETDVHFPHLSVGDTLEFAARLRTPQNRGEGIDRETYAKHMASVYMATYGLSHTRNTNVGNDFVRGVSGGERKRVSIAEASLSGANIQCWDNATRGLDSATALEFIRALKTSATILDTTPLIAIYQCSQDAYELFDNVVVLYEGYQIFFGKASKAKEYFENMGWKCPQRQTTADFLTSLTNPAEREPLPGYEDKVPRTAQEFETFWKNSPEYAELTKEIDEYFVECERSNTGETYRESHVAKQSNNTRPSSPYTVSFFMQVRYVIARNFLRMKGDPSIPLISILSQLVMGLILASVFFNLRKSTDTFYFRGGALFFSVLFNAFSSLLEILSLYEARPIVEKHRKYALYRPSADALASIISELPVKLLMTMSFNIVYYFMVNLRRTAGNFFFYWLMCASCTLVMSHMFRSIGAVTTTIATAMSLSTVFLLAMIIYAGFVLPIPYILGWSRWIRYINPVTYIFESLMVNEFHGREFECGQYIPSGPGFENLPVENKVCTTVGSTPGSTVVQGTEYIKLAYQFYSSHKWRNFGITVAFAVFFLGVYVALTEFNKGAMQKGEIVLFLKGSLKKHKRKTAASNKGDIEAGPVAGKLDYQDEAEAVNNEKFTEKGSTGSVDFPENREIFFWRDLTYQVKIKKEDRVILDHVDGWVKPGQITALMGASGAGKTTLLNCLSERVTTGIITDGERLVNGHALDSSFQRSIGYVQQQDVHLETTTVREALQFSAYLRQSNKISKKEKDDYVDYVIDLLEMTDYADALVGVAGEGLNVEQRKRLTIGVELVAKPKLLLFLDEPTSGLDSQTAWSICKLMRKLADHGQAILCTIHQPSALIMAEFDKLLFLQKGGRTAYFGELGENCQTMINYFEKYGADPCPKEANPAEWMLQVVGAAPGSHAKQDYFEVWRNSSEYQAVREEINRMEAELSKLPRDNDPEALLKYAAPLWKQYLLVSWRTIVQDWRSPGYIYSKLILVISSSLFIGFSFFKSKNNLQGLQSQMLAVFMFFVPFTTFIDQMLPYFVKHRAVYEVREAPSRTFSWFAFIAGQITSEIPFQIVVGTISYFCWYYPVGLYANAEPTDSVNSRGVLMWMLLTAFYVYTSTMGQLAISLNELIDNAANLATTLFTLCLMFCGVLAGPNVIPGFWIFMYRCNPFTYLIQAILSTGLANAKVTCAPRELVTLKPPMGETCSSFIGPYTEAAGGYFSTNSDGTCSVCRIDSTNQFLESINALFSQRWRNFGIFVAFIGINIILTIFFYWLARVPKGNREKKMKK
Chain of Mitogen-activated protein kinase 8 (P45983 whole entry): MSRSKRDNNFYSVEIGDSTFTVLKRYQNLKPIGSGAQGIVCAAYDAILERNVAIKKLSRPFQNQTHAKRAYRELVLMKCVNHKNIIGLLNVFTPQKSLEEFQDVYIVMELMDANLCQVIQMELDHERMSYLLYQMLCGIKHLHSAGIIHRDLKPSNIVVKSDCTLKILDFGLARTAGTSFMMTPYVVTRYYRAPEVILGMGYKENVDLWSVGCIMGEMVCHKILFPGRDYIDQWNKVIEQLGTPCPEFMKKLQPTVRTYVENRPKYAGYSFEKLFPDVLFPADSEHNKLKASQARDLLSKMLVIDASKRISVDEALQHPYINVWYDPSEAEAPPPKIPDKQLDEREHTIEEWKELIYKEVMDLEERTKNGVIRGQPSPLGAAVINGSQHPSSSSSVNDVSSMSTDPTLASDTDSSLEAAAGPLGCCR
Chain of Melanin-concentrating hormone receptor 1 (Q99705 whole entry): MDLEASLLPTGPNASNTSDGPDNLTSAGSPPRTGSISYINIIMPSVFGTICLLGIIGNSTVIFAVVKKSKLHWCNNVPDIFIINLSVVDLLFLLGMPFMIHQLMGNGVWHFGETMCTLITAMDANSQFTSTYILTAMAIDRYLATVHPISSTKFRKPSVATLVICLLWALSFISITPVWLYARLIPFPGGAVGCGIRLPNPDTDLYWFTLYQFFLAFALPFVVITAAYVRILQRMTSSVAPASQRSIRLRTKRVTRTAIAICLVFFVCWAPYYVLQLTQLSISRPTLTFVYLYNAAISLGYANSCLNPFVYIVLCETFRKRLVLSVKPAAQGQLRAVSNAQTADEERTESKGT
Chain of Melanocortin receptor 4 (P32245 whole entry): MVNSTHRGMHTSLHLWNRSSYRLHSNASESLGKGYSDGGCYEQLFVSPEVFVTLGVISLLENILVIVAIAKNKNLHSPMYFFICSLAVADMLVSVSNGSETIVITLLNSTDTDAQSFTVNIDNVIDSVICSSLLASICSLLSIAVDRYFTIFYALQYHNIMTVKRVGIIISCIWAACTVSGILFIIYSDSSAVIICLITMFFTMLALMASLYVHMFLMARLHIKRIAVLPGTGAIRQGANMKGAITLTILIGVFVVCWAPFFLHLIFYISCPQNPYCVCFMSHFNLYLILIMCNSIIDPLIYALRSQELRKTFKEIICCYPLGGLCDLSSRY

CCOC(=O)c1cc(C(=O)NC(C)c2ccccc2)c(C)nc1O (stereo unspecified)
IC50 [1]: 1.77 µM (active)
IC50 [2]: 0.447 µM (active)

COc1cccc(-c2sc3ccc(OC)cc3c2-c2ccc(OCCN3CCCCC3)cc2)c1
EC50 [3]: 11.2 µM (active)

COc1ccc(-n2nnnc2S(=O)(=O)CC(=O)N2CCCCC2)cc1
CC50 [4]: 11.3 µM (active)
EC50 [5]: 10.6 µM (active)
EC50 [6]: 10.9 µM (active)
IC50 [7]: > 80 µM (inactive)
IC50 (Melanocortin receptor 4): > 64.5 µM (inactive)
AC50 [8]: 5.44 µM (active)
AC50 [9]: 16.8 µM (active)
AC50 [10]: 3.45 µM (active)
IC50 [11]: > 64.5 µM (inactive)
AC50 [12]: 13 µM (active)
AC50 [13]: 8.89 µM (active)
AC50 [14]: 7.53 µM (active)
AC50 [15]: 7.63 µM (active)
AC50 [16]: 13.6 µM (active)

C[n+]1cccc(C(=O)Nc2ccccc2)c1
IC50 [17]: 2.75 µM (active)
IC50 [18]: 6.95 µM (active)
IC50 [19]: 28.6 µM (inactive)
IC50 [20]: 1.1 µM (active)
IC50 [21]: 5.96 µM (active)
IC50 [22]: 12.8 µM (inactive)

Cc1cccc(C(C#N)c2c(Cl)cnn(Cc3cccc4ccccc34)c2=O)c1 (stereo unspecified)
IC50 [23]: 0.379 µM (active)
IC50 [24]: 18.8 µM (inactive)

O=c1[nH]ccc2cnc(-c3ccccc3)n12
Ki [25]: 25.1 µM (active)
Ki [26]: 79.4 µM (active)
Ki [27]: 39.8 µM (active)
Ki [28]: 63.1 µM (active)

CC(Cn1cnc2ccccc21)C(=O)O (stereo unspecified)
EC50 [29]: > 100 µM (inactive)
EC50 [30]: 83.2 µM (active)
